Values of other authors, collected in patent publication US20170056386A1, “TOPICAL ANTIFUNGAL COMPOSITION FOR TREATING ONYCHOMYCOSIS” (Polichem SA, priority 2014, published 2017).

Test system: onychomycosis
Settings: oral administration

CN(C/C=C/C#CC(C)(C)C)Cc1cccc2ccccc12 [terbinafine]
Complete cure (patients): 38%
